Results: patent US20100222349A1, “QUINOLINE DERIVATIVES USED TO TREAT INFLAMMATORY AND ALLERGIC DISEASES” (Glaxo Group Limited, priority 2007, published 2010)

Columns and labels:
[1] = biological target: T1, histamine H3 receptor (Homo sapiens, UniProt Q9Y5N1); experiment: Histamine H3 functional antagonist assay (GTPγS, membranes); format: biochemical; settings: CHO K1 membranes, [35S]-GTPγS, histamine at EC80; read-out: average pKi (pKb) at H3 (converted)
T1 construct: expressed in transfected cells; host or cells: CHO K1 cells with pSwitch/pGeneH3 (GeneSwitch, mifepristone-induced), clone 3H3; membrane preparation
Outline: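 Membranes came from CHO K1 cells with mifepristone-inducible (10 nM, 18 h) human H3 receptor expression, clone 3H3. Test compounds in DMSO were combined with WGA polystyrene LeadSeeker SPA beads, membranes and GDP.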

[2] = biological target: T2, human H1 receptor (Homo sapiens, UniProt P35367); experiment: Histamine H1 functional antagonist assay: determination of functional pKi values (FLIPR); format: cell-based; settings: CHO cells expressing human H1 receptor, histamine at EC80, read-out: average pKi (pKb) at H1 (converted)
T2 construct: expressed in transfected cells
Outline: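 CHO cells stably expressing human H1 receptor, loaded with Fluo-4 for 60 min, then preincubated with compound 30 min at 37° C in Tyrodes buffer with probenecid, pH 7.40. Histamine added at EC80; suppression of calcium fluorescence on FLIPR gives functional affinity from concentration-effect curves.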

[3] = biological target: T2, human H1 receptor; experiment: Histamine H1 functional antagonist assay: antagonist duration; format: cell-based; settings: at one or more time points, after washout
Procedure: (§1) The human H1 receptor is cloned using known procedures described in the literature [Biochem. Biophys. Res. Commun., 201(2):894 (1994)]. Chinese hamster ovary (CHO) cells stably expressing the human H1 receptor are generated according to known procedures described in the literature [Br. J. Pharmacol., 117(6):1071 (1996)].
To determine the antagonist duration, cells are cultured overnight in non-coated black-walled clear bottom 96-well tissue culture plates, are washed with PBS and are incubated with a concentration of antagonist chosen to give an approximate DR in the range 30-300. Following the 30 min antagonist incubation period, the cells are washed two or three times with 200 μl of PBS and then 100 μl Tyrodes buffer is added to each well to initiate antagonist dissociation. Following incubation for predetermined times, typically 30-270 min at 37° C., the cells are then washed again with 200 μl PBS and are incubated with 100 μl Tyrodes buffer containing Brilliant Black, probenecid and Fluo-4 for 45 min at 37° C., as described above. After this period, the cells are challenged with histamine in the FLIPR™ as described above. The dose ratio at each time point is used to determine the fractional H1 receptor occupancy by the following equation: fractional receptor occupancy=(DR-1)/DR. The decrease in receptor occupancy over time approximates to a straight line and is analysed by linear regression. The slope of this straight line fit is used as an index of the dissociation rate of the antagonist. The dose ratios for antagonist treated cells and for antagonist treated and washed cells at each time point are used to calculate a relative dose ratio (rel DR) which is also used as an index of antagonist duration. Antagonists with long duration of action produce rel DR values close to 1, and antagonists with short duration of action produce rel DR values that approaches the dose ratio value obtained for antagonist treatment alone.

[4] = biological target: T2, human H1 receptor; experiment: Histamine H1 functional antagonist assay: determination of antagonist pA2 (FLIPR); format: cell-based; settings: histamine H1 receptor expressing CHO cells, histamine concentration response curves
Procedure: as §1
The histamine H1 receptor expressing CHO cells are seeded into non-coated black-walled clear bottom 96-well tissue culture plates as described above.
Following overnight culture, growth medium is removed from each well, washed with 200 μl PBS and is replaced with 50 μl loading dye (250 μM Brilliant Black, 1 μM Fluo-4 diluted in Tyrodes buffer+probenecid (145 mM NaCl, 2.5 mM KCl, 10 mM HEPES, 10 mM D-glucose, 1.2 mM MgCl2, 1.5 mM CaCl2, 2.5 mM probenecid, pH adjusted to 7.40 with NaOH 1.0 M)). Cells are incubated for 45 min at 37° C. The loading buffer is removed and the cells are washed as above, and 90 μl of Tyrodes buffer+probenecid is added to each well. 10 μl of test compound, diluted to the required concentration in Tyrodes buffer+probenecid (or 10 μl Tyrodes buffer+probenecid as a control) is added to each well and the plate is incubated for 30 min at 37° C., 5% CO2.
The plates are then placed into a FLIPR™ (Molecular Devices, UK) to monitor cell fluorescence (λex=488 nm, λEM=540 nm) in the manner described in Sullivan et al., (In: Lambert DG (ed.), Calcium Signaling Protocols, New Jersey: Humana Press, 1999, 125-136) before and after the addition of 50 μl histamine over a concentration range of 1 mM-0.1 nM. The resultant concentration response curves are analysed by non-linear regression using a standard four parameter logistic equation to determine the histamine EC50, the concentration of histamine required to produce a response of 50% of the maximum response to histamine. The antagonist pA2 is calculated using the following standard equation: pA2=[…] where DR=dose ratio, defined as EC50antagonist-treated/EC50control and [B]=concentration of antagonist.

T1 sequence (Q9Y5N1 whole entry, species assumed): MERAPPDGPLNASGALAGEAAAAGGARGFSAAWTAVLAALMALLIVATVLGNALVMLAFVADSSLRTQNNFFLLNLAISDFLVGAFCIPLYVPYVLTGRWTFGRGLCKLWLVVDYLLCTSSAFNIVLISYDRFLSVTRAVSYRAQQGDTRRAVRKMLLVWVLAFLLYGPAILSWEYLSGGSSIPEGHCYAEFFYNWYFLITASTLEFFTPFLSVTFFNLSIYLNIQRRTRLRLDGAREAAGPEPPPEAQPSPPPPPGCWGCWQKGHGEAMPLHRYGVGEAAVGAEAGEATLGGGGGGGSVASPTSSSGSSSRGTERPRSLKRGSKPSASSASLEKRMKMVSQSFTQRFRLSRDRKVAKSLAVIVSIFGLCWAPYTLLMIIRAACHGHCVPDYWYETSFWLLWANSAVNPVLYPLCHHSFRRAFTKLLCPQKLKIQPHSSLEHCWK
T2 sequence (P35367 whole entry): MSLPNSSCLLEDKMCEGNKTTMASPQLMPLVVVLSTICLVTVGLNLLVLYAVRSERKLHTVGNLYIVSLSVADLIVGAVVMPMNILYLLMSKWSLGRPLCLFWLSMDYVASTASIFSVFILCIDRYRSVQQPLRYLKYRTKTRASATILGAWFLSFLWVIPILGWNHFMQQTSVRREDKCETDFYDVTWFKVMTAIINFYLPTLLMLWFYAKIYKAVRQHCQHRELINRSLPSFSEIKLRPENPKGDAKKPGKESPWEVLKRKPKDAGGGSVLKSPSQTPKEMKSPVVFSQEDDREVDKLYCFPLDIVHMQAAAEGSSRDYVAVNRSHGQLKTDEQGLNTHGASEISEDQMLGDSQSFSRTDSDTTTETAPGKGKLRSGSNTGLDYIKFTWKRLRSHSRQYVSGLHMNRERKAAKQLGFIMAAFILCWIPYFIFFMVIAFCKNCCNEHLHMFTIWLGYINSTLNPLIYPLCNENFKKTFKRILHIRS

| Structure (SMILES) | Ki [1] | Ki [2] | Kb [4] | duration of action compared with azelastine [3] |
| --- | --- | --- | --- | --- |
| CCCCc1cc(OC2CCN(CCNC(=O)C(C)(C)C)CC2)c2ncccc2c1 [Example 72, N-(2-{4-[(6-butyl-8-quinolinyl)oxy]-1-piperidinyl}ethyl)-2,2-dimethyl propanamide] | > 316 nM | < 10 nM | – | longer duration of action than azelastine |
| CCCCc1cc(O[C@H]2CCN(CCC(=O)N(CC)CC)C2)c2ncccc2c1 [Example 40, 3-{(3S)-3-[(6-butyl-8-quinolinyl)oxy]-1-pyrrolidinyl}-N,N-diethylpropanamide] | > 316 nM | ~1000 nM | < 100 nM | – |
| CCCCc1cc(O[C@H]2CCN(CCCC(=O)NC(C)(C)C)C2)c2ncccc2c1 [Example 41, 4-{(3S)-3-[(6-butyl-8-quinolinyl)oxy]-1-pyrrolidinyl}-N-(1,1-dimethylethyl) butanamide] | > 316 nM | < 100 nM | < 100 nM | – |
| CCCCc1cc(OC2CCN(CCCCNC(=O)CCOC)CC2)c2ncccc2c1 [Example 85, N-(4-{4-[(6-butyl-8-quinolinyl)oxy]-1-piperidinyl}butyl)-3-(methyloxy) propanamide] | > 316 nM | < 10 nM | – | – |
| CCCCc1cc(OC2CCN(CCCC(=O)NC(C)C)CC2)c2ncccc2c1 [Example 25, 4-{4-[(6-butyl-8-quinolinyl)oxy]-1-piperidinyl}-N-(1-methylethyl)butanamide] | > 3160 nM | < 10 nM | – | – |
| CCCCc1cc(O[C@H]2CCN(CCC(=O)N3CCCCC3)C2)c2ncccc2c1 [Example 38, 6-butyl-8-({(3S)-1-[3-oxo-3-(1-piperidinyl)propyl]-3-pyrrolidinyl}oxy)quinoline] | ~100 nM | ~1000 nM | < 100 nM | – |
| CCCCCc1cc(OC2CCN(CCCC(=O)NC(C)(C)C)CC2)c2ncccc2c1 [Example 88, N-(1,1-dimethylethyl)-4-{4-[(6-pentyl-8-quinolinyl)oxy]-1-piperidinyl}butanamide] | > 316 nM | < 10 nM | – | – |
| CCCCc1cc(O[C@H]2CCN(CCCC(=O)N3CCCCC3)C2)c2ncccc2c1 [Example 39, 6-butyl-8-({(3S)-1-[4-oxo-4-(1-piperidinyl)butyl]-3-pyrrolidinyl}oxy)quinoline] | > 316 nM | < 10 nM | – | – |
| CCCCc1cc(OC2CCN(CCCC(=O)NCCC)CC2)c2ncccc2c1 [Example 22, 4-{4-[(6-butyl-8-quinolinyl)oxy]-1-piperidinyl}-N-propylbutanamide] | > 3160 nM | < 10 nM | – | – |
| CCCCc1cc(O[C@@H]2CCN(CCC(=O)N3CCCCC3)C2)c2ncccc2c1 [Example 33, 6-butyl-8-({(3R)-1-[3-oxo-3-(1-piperidinyl)propyl]-3-pyrrolidinyl}oxy)quinoline] | > 316 nM | < 10 nM | – | – |
| CCCCc1cc(OC2CCN(CCCCNC(=O)CCC)CC2)c2ncccc2c1 [Example 65, N-(4-{4-[(6-butyl-8-quinolinyl)oxy]-1-piperidinyl}butyl) butanamide] | > 316 nM | < 10 nM | – | – |
| CCCCc1cc(O[C@@H]2CCN(CCC(=O)N(CC)CC)C2)c2ncccc2c1 [Example 35, 3-{(3R)-3-[(6-butyl-8-quinolinyl)oxy]-1-pyrrolidinyl}-N,N-diethylpropanamide] | > 316 nM | < 10 nM | – | – |
| CCCCc1cc(O[C@@H]2CCN(CCCC(=O)N3CCCCC3)C2)c2ncccc2c1 [Example 34, 6-butyl-8-({(3R)-1-[4-oxo-4-(1-piperidinyl)butyl]-3-pyrrolidinyl}oxy)quinoline] | > 316 nM | < 10 nM | – | – |
| CCCCc1cc(OC2CCN(CCCC(=O)NCCOC)CC2)c2ncccc2c1 [Example 23, 4-{4-[(6-butyl-8-quinolinyl)oxy]-1-piperidinyl}-N-[2-(methyloxy)ethyl] butanamide] | > 3160 nM | < 10 nM | – | – |
| CCCCc1cc(OC2CCN(CCNC(=O)CC)CC2)c2ncccc2c1 [Example 73, N-(2-{4-[(6-butyl-8-quinolinyl)oxy]-1-piperidinyl}ethyl) propanamide] | > 316 nM | < 10 nM | – | – |

Continued, in another order:

| Ki [1] | Ki [2] | Kb [4] | Structure (SMILES) | duration of action compared with azelastine [3] |
| --- | --- | --- | --- | --- |
| > 316 nM | < 10 nM | – | CCCCc1cc(OC2CCN(C[C@H]3CC[C@H](C(=O)N(CC)CC)CC3)CC2)c2ncccc2c1 [Example 43, Trans-4-({4-[(6-butyl-8-quinolinyl)oxy]-1-piperidinyl}methyl)-N,N-diethylcyclohexane carboxamide] | longer duration of action than azelastine |
| > 316 nM | < 10 nM | – | CCCCCc1cc(OC2CCN(CCCNC(=O)C(C)(C)C)CC2)c2ncccc2c1 [Example 91, 2,2-Dimethyl-N-(3-{4-[(6-pentyl-8-quinolinyl)oxy]-1-piperidinyl}propyl) propanamide] | – |
| > 316 nM | < 100 nM | – | CCCCCCc1cc(OC2CCN(C[C@H]3CC[C@H](C(=O)NCCC)CC3)CC2)c2ncccc2c1 [Example 55, trans-4-({4-[(6-hexyl-8-quinolinyl)oxy]-1-piperidinyl}methyl)-N-propylcyclohexane carboxamide] | – |
| > 316 nM | < 10 nM | – | CCCCc1cc(OC2CCN(CCNC(=O)C(C)C)CC2)c2ncccc2c1 [Example 71, N-(2-{4-[(6-butyl-8-quinolinyl)oxy]-1-piperidinyl}ethyl)-2-methylpropanamide] | – |
| > 316 nM | < 100 nM | – | CCCCc1cc(OC2CCN(CC3CCN(C(C)=O)CC3)CC2)c2ncccc2c1 [Example 1, 8-({1-[(1-Acetyl-4-piperidinyl)methyl]-4-piperidinyl}oxy)-6-butylquinoline] | – |
| > 316 nM | < 100 nM | – | CCCCCCc1cc(OC2CCN(C[C@H]3CC[C@H](C(=O)NCCC(C)C)CC3)CC2)c2ncccc2c1 [Example 50, trans-4-({4-[(6-hexyl-8-quinolinyl)oxy]-1-piperidinyl}methyl)-N-(3-methylbutyl) cyclohexane carboxamide] | – |
| > 316 nM | < 100 nM | – | CCCCCCc1cc(OC2CCN(C[C@H]3CC[C@H](C(=O)NCCCOC)CC3)CC2)c2ncccc2c1 [Example 58, trans-4-({4-[(6-hexyl-8-quinolinyl)oxy]-1-piperidinyl}methyl)-N-[3-(methyloxy)propyl]cyclohexane carboxamide] | – |
| > 316 nM | < 10 nM | – | CCCCc1cc(OC2CCN(CCCNC(=O)C(C)C)CC2)c2ncccc2c1 [Example 68, N-(3-{4-[(6-butyl-8-quinolinyl)oxy]-1-piperidinyl}propyl)-2-methyl propanamide] | – |
| > 316 nM | < 10 nM | – | CCCCc1cc(OC2CCN(CCCCNC(C)=O)CC2)c2ncccc2c1 [Example 79, N-(4-{4-[(6-Butyl-8-quinolinyl)oxy]-1-piperidinyl}butyl)acetamide] | – |
| > 316 nM | < 100 nM | – | CCCCCCc1cc(OC2CCN(C[C@H]3CC[C@H](C(=O)N4CCCC4)CC3)CC2)c2ncccc2c1 [Example 54, 6-hexyl-8-[(1-{[trans-4-(1-pyrrolidinylcarbonyl)cyclohexyl]methyl}-4-piperidinyl)oxy]quinoline] | – |
